Data taken from US20050026853A1, “Anti-viral 7-deaza D-nucleosides and uses thereof” (Micrologix Biotech Inc., priority 2002, published 2005).

Key:
HBV = HBV cell-based assay; set-up: species or system hepatitis B virus
Excerpt: As described herein, compounds of the instant invention show surprising and exceptionally strong inhibition of viral replication, particularly HBV. […] In certain embodiments, the invention provides compounds capable of inhibiting viral replication, preferably HBV, at clinically relevant concentrations.
HBV cell-based assays for the evaluation of anti-viral activity against HBV are known in the art (see, e.g., Korba et al., Antiviral Res. 15:217, 1991; and Korba et al., Antiviral Res. 19:55, 1992). Moreover, the compounds of the invention can be useful research tools for in vitro and cell-based assays to study the biological mechanisms of viral infection, growth, and replication, preferably for HBV. By way of background and not wishing to be bound by theory, HBV replication is unusual in that this virus has a partially […] circular DNA (all of the minus DNA strand and part of the plus strand), but replicates by way of an RNA intermediate (typically, single-stranded viral DNA is converted to double stranded DNA, which serves as the template for viral replication). That is, when the virus enters the cell, the minus-strand DNA is transported to the cell nucleus, plus strand RNA is then transcribed from the DNA, the RNA is transported to the cytoplasm, and reverse transcriptase then synthesizes viral DNA from the RNA for packaging. […]

[1] = overall biopharmaceutical properties / oral availability

SMILES: Nc1ncnc2c1c(F)cn2[C@H]1CC(O)[C@@H](CO)O1 (stereo partly drawn) [structure (II), 4-amino-5-fluoro-7-(2′-deoxy-β-D-erythro-pentofuranosyl) pyrrolo[2,3-d]pyrimidine]
- anti-viral activity against HBV (HBV): exhibit anti-viral activity against HBV
- oral availability [1]: orally available
- overall biopharmaceutical properties [1]: good overall biopharmaceutical properties
